Numbers after ± are expanded uncertainties.
What was measured:
[1] = Crystal; DTA
[2] = Molar enthalpy of transition or fusion; conditions: Crystal; DSC

CCCCCCCCCCCCCCCc1cccc(O)c1 [3-pentadecylphenol]
Normal melting temperature [1]: 49.20 ± 1.1 °C | Molar enthalpy of transition or fusion [2]: 9.1 ± 0.196 kcal/mol

Source: the NIST ThermoML archive (doi:10.1021/je900346t)
